What was measured:
[1] = xn = mol fraction of the nth substance listed; settings: 100 kPa, Liquid, Concentric cylinders viscometry, x1 = 1
[2] = Liquid; for viscosity: Concentric cylinders viscometry; for mass density: Vibrating tube method
[3] = molar heat capacity at constant pressure; settings: Liquid, Flow calorimetry

CCCCO [butan-1-ol] + C=CCCCC
[1]
Settings | viscosity [mPa·s]
293.15 K | 2.953
303.15 K | 2.263
313.15 K | 1.769

CCCCO [butan-1-ol]
[2], 100 kPa
Settings | viscosity [mPa·s]
293.15 K | 2.953
303.15 K | 2.263
313.15 K | 1.769

C=CCCCC [hex-1-ene]
Settings | mass density [kg/m3] | molar heat capacity at constant pressure [J/K/mol] | viscosity [mPa·s]
[2], 273.15 K, 100 kPa | 691.5 | – | –
[2], 273.15 K, 1000 kPa | 692.1 | – | –
[2], 273.15 K, 2000 kPa | 693 | – | –
[2], 273.15 K, 5000 kPa | 695.8 | – | –
[2], 273.15 K, 10000 kPa | 700 | – | –
[2], 273.15 K, 15000 kPa | 704 | – | –
[2], 273.15 K, 20000 kPa | 707.8 | – | –
[2], 273.15 K, 30000 kPa | 715 | – | –
[2], 273.15 K, 40000 kPa | 721.6 | – | –
[2], 273.15 K, 50000 kPa | 727.6 | – | –
[2], 273.15 K, 60000 kPa | 733.2 | – | –
[2], 273.15 K, 70000 kPa | 738.7 | – | –
[2], 293.15 K, 100 kPa | 672.8 | – | 0.28
[2], 293.15 K, 1000 kPa | 673.8 | – | –
[2], 293.15 K, 2000 kPa | 674.9 | – | –
[2], 293.15 K, 5000 kPa | 678 | – | –
[2], 293.15 K, 10000 kPa | 682.9 | – | –
[2], 293.15 K, 15000 kPa | 687.5 | – | –
[2], 293.15 K, 20000 kPa | 691.8 | – | –
[2], 293.15 K, 30000 kPa | 699.8 | – | –
[2], 293.15 K, 40000 kPa | 707 | – | –
[2], 293.15 K, 50000 kPa | 713.7 | – | –
[2], 293.15 K, 60000 kPa | 719.9 | – | –
[2], 293.15 K, 70000 kPa | 725.8 | – | –
[2], 303.15 K, 100 kPa | – | – | 0.257
[2], 313.15 K, 100 kPa | 653.8 | – | 0.236
[2], 313.15 K, 1000 kPa | 654.9 | – | –
[2], 313.15 K, 2000 kPa | 656.2 | – | –
[2], 313.15 K, 5000 kPa | 659.9 | – | –
[2], 313.15 K, 10000 kPa | 665.5 | – | –
[2], 313.15 K, 15000 kPa | 670.8 | – | –
[2], 313.15 K, 20000 kPa | 675.7 | – | –
[2], 313.15 K, 30000 kPa | 684.6 | – | –
[2], 313.15 K, 40000 kPa | 692.6 | – | –
[2], 313.15 K, 50000 kPa | 699.9 | – | –
[2], 313.15 K, 60000 kPa | 706.9 | – | –
[2], 313.15 K, 70000 kPa | 713 | – | –
[2], 333.15 K, 100 kPa | 634 | – | –
[2], 333.15 K, 1000 kPa | 635.4 | – | –
[2], 333.15 K, 2000 kPa | 636.9 | – | –
[2], 333.15 K, 5000 kPa | 641.3 | – | –
[2], 333.15 K, 10000 kPa | 647.8 | – | –
[2], 333.15 K, 15000 kPa | 653.9 | – | –
[2], 333.15 K, 20000 kPa | 659.5 | – | –
[2], 333.15 K, 30000 kPa | 669.5 | – | –
[2], 333.15 K, 40000 kPa | 678.4 | – | –
[2], 333.15 K, 50000 kPa | 686.3 | – | –
[2], 333.15 K, 60000 kPa | 693.7 | – | –
[2], 333.15 K, 70000 kPa | 700.5 | – | –
[3], 293.15 K, 100 kPa | – | 179.2 | –
[3], 293.15 K, 5000 kPa | – | 174.9 | –
[3], 293.15 K, 10000 kPa | – | 172.7 | –
[3], 293.15 K, 15000 kPa | – | 169.9 | –
[3], 293.15 K, 20000 kPa | – | 168.1 | –
[3], 293.15 K, 25000 kPa | – | 165.7 | –
[3], 313.15 K, 100 kPa | – | 188.8 | –
[3], 313.15 K, 5000 kPa | – | 185.9 | –
[3], 313.15 K, 10000 kPa | – | 183.1 | –
[3], 313.15 K, 15000 kPa | – | 181.6 | –
[3], 313.15 K, 20000 kPa | – | 179.6 | –
[3], 313.15 K, 25000 kPa | – | 177.2 | –

From the NIST ThermoML archive (doi:10.1021/je301301j)
